Paper PMC5218480 (PLoS ONE, 2017)

Test system: MV-4-11 cells
Experiment: Gene expression microarray analysis (Affymetrix PrimeView) and GSEA
Format: cell-based, human
Parameters: RFU PODN (11730768_x_at) / Fold change /veh PODN (11730768_x_at) / RFU LINC00158 (11744669_a_at) / Fold change /veh LINC00158 (11744669_a_at) / RFU DUSP10 (11751237_a_at) / Fold change /veh DUSP10 (11751237_a_at) / RFU ID3 (11757404_x_at) / Fold change /veh ID3 (11757404_x_at) / RFU PLEKHG5 (11737974_s_at) / Fold change /veh PLEKHG5 (11737974_s_at) / RFU LRRC4B (11730491_at) / Fold change /veh LRRC4B (11730491_at) / RFU GIMAP4 (11747438_a_at) / Fold change /veh GIMAP4 (11747438_a_at) / RFU KRT8 (11758183_x_at) / Fold change /veh KRT8 (11758183_x_at) / RFU CNN1 (11734310_a_at) / Fold change /veh CNN1 (11734310_a_at) / RFU VPS37D (11726825_at) / Fold change /veh VPS37D (11726825_at) / RFU C10orf10 (11716522_x_at) / Fold change /veh C10orf10 (11716522_x_at) / RFU KIR2DL2 /// KIR2DL4 /// KIR2DL5A /// KIR2DL5B /// KIR2DS1 /// KIR2DS2 /// KIR2DS3 /// KIR2DS4 /// KIR3DL3 /// KIR3DL3 /// KIR3DS1 (11738374_at) / Fold change /veh KIR2DL2 /// KIR2DL4 /// KIR2DL5A /// KIR2DL5B /// KIR2DS1 /// KIR2DS2 /// KIR2DS3 /// KIR2DS4 /// KIR3DL3 /// KIR3DL3 /// KIR3DS1 (11738374_at) / RFU C1QL1 (11718748_at) / Fold change /veh C1QL1 (11718748_at) / RFU TMPRSS4 (11747572_a_at) / Fold change /veh TMPRSS4 (11747572_a_at) / RFU HAMP (11756126_x_at) / Fold change /veh HAMP (11756126_x_at) / RFU RNFT2 (11725882_a_at) / Fold change /veh RNFT2 (11725882_a_at) / RFU NR4A2 (11747474_a_at) / Fold change /veh NR4A2 (11747474_a_at) / RFU ABCC12 (11746883_a_at) / Fold change /veh ABCC12 (11746883_a_at) / RFU TMEM136 (11760407_x_at) / Fold change /veh TMEM136 (11760407_x_at) / RFU CLDN22 /// WWC2 (11732394_at) / Fold change /veh CLDN22 /// WWC2 (11732394_at) / RFU HLA-DPB1 (11760878_x_at) / Fold change /veh HLA-DPB1 (11760878_x_at) / RFU SPINT1 (11716480_a_at) / Fold change /veh SPINT1 (11716480_a_at) / RFU GAP43 (11754022_s_at) / Fold change /veh GAP43 (11754022_s_at) / RFU A4GNT (11735810_at) / Fold change /veh A4GNT (11735810_at) / RFU PRB3 (11715151_x_at) / Fold change /veh PRB3 (11715151_x_at) / RFU TUBB4B (11761932_at) / Fold change /veh TUBB4B (11761932_at) / RFU CAPN14 (11732068_a_at) / Fold change /veh CAPN14 (11732068_a_at) / RFU TMCC2 (11721928_a_at) / Fold change /veh TMCC2 (11721928_a_at) / RFU IRGQ (11745062_a_at) / Fold change /veh IRGQ (11745062_a_at) / RFU FAM174B (11720279_a_at) / Fold change /veh FAM174B (11720279_a_at) / RFU TMPRSS4 (11748680_a_at) / Fold change /veh TMPRSS4 (11748680_a_at) / RFU FAM212B (11763350_a_at) / Fold change /veh FAM212B (11763350_a_at) / RFU PLEKHG5 (11743358_a_at) / Fold change /veh PLEKHG5 (11743358_a_at) / RFU ZSCAN30 (11745921_a_at) / Fold change /veh ZSCAN30 (11745921_a_at) / RFU CMKLR1 (11741424_a_at) / Fold change /veh CMKLR1 (11741424_a_at) / RFU LOC101060620 /// MAPK8IP1 (11723275_at) / Fold change /veh LOC101060620 /// MAPK8IP1 (11723275_at) / RFU SPTSSB (11747773_x_at) / Fold change /veh SPTSSB (11747773_x_at) / RFU PRSS12 (11739890_at) / Fold change /veh PRSS12 (11739890_at) / RFU BIN1 (11741810_x_at) / Fold change /veh BIN1 (11741810_x_at) / RFU WNT11 (11732464_a_at) / Fold change /veh WNT11 (11732464_a_at) / RFU C10orf10 (11716521_a_at) / Fold change /veh C10orf10 (11716521_a_at) / RFU C5orf56 (11738089_at) / Fold change /veh C5orf56 (11738089_at) / RFU CYB561 (11721691_x_at) / Fold change /veh CYB561 (11721691_x_at) / RFU ANKRD19P (11752326_a_at) / Fold change /veh ANKRD19P (11752326_a_at) / RFU OR2T12 /// OR2T33 /// OR2T8 (11738714_s_at) / Fold change /veh OR2T12 /// OR2T33 /// OR2T8 (11738714_s_at) / RFU VCAN (11748164_a_at) / Fold change /veh VCAN (11748164_a_at) / RFU JSRP1 (11732532_at) / Fold change /veh JSRP1 (11732532_at) / RFU KRTAP10-11 (11738290_x_at) / Fold change /veh KRTAP10-11 (11738290_x_at) / RFU MYO3A (11730013_a_at) / Fold change /veh MYO3A (11730013_a_at) / RFU EBF3 (11725865_a_at) / Fold change /veh EBF3 (11725865_a_at) / RFU CAMK2N1 (11719241_x_at) / Fold change /veh CAMK2N1 (11719241_x_at) / RFU C5orf56 (11738088_a_at) / Fold change /veh C5orf56 (11738088_a_at) / RFU OLFML3 (11715873_a_at) / Fold change /veh OLFML3 (11715873_a_at) / RFU LOC100653217 /// NTM (11731650_a_at) / Fold change /veh LOC100653217 /// NTM (11731650_a_at) / RFU MAPK11 (11762145_a_at) / Fold change /veh MAPK11 (11762145_a_at) / RFU FIZ1 (11724087_x_at) / Fold change /veh FIZ1 (11724087_x_at) / RFU OASL (11726364_x_at) / Fold change /veh OASL (11726364_x_at) / RFU SOX15 (11748057_x_at) / Fold change /veh SOX15 (11748057_x_at) / RFU CD79A (11719716_a_at) / Fold change /veh CD79A (11719716_a_at) / RFU HIST1H1D (11736915_at) / Fold change /veh HIST1H1D (11736915_at) / RFU CASKIN2 (11723855_a_at) / Fold change /veh CASKIN2 (11723855_a_at) / RFU LOC730098 (11760151_x_at) / Fold change /veh LOC730098 (11760151_x_at) / RFU OR4N2 (11742367_at) / Fold change /veh OR4N2 (11742367_at) / RFU PRRT2 (11749266_a_at) / Fold change /veh PRRT2 (11749266_a_at) / RFU SNX32 (11753110_a_at) / Fold change /veh SNX32 (11753110_a_at) / RFU CDHR5 (11726645_a_at) / Fold change /veh CDHR5 (11726645_a_at) / RFU RCAN1 (11760418_a_at) / Fold change /veh RCAN1 (11760418_a_at) / RFU FAM167A (11723789_a_at) / Fold change /veh FAM167A (11723789_a_at) / RFU FAM26E (11764081_at) / Fold change /veh FAM26E (11764081_at) / RFU ISYNA1 (11749810_s_at) / Fold change /veh ISYNA1 (11749810_s_at) / RFU ACY1 (11761880_at) / Fold change /veh ACY1 (11761880_at) / RFU 11764098_at / Fold change /veh 11764098_at / RFU SAMD14 (11745864_x_at) / Fold change /veh SAMD14 (11745864_x_at) / RFU NPB (11741838_a_at) / Fold change /veh NPB (11741838_a_at) / RFU TMPRSS6 (11731388_a_at) / Fold change /veh TMPRSS6 (11731388_a_at) / RFU KRTAP10-2 (11738614_at) / Fold change /veh KRTAP10-2 (11738614_at) / RFU ARHGAP8 /// PRR5-ARHGAP8 (11727945_x_at) / Fold change /veh ARHGAP8 /// PRR5-ARHGAP8 (11727945_x_at) / RFU KRTAP5-7 /// NADSYN1 (11734609_at) / Fold change /veh KRTAP5-7 /// NADSYN1 (11734609_at) / RFU RASL12 (11751679_a_at) / Fold change /veh RASL12 (11751679_a_at) / RFU CDKN2B (11736163_a_at) / Fold change /veh CDKN2B (11736163_a_at) / RFU PRF1 (11729649_at) / Fold change /veh PRF1 (11729649_at) / RFU, ZNF638 /// ZNF638-IT1 / Fold change vs veh, ZNF638 /// ZNF638-IT1 / RFU, PANK3 / Fold change vs veh, PANK3 / RFU, SH3YL1 / Fold change vs veh, SH3YL1 / RFU, ZEB2 / Fold change vs veh, ZEB2 / RFU, NRIP1 / Fold change vs veh, NRIP1 / RFU, PTTG1IP / Fold change vs veh, PTTG1IP / RFU, CAPN2 / Fold change vs veh, CAPN2 / RFU, MED14 / Fold change vs veh, MED14 / RFU, SNORA58 / Fold change vs veh, SNORA58 / RFU, C1orf63 / Fold change vs veh, C1orf63 / RFU, LRRFIP1 / Fold change vs veh, LRRFIP1 / RFU, NDUFAF7 / Fold change vs veh, NDUFAF7 / RFU, SLC12A2 / Fold change vs veh, SLC12A2 / RFU, IBTK / Fold change vs veh, IBTK / RFU, ESF1 / Fold change vs veh, ESF1 / Fold change vs veh, TMEM50B / RFU, TAOK1 / Fold change vs veh, TAOK1 / RFU, ACBD3 / Fold change vs veh, ACBD3 / RFU, TMA16 / Fold change vs veh, TMA16 / RFU, RWDD3 / Fold change vs veh, RWDD3 / RFU, BCAT1 / Fold change vs veh, BCAT1 / RFU, EDEM3 / Fold change vs veh, EDEM3 / RFU, TMEM33 / Fold change vs veh, TMEM33 / RFU, WDR75 / Fold change vs veh, WDR75 / RFU, AHCTF1 / Fold change vs veh, AHCTF1 / RFU, TFRC / Fold change vs veh, TFRC / RFU, ZDHHC17 / Fold change vs veh, ZDHHC17 / RFU, NOM1 / Fold change vs veh, NOM1 / RFU, ARL8B / Fold change vs veh, ARL8B / RFU, ZBTB11 / Fold change vs veh, ZBTB11 / RFU, TAMM41 / Fold change vs veh, TAMM41 / RFU, KIAA1704 /// LOC100996395 / Fold change vs veh, KIAA1704 /// LOC100996395 / RFU, ING1 / Fold change vs veh, ING1 / RFU, TRMT61B / Fold change vs veh, TRMT61B / RFU, FUBP3 / Fold change vs veh, FUBP3 / RFU, TP53 / Fold change vs veh, TP53 / RFU, TNKS2 / Fold change vs veh, TNKS2 / RFU, ZFP14 / Fold change vs veh, ZFP14 / RFU, ACTR2 / Fold change vs veh, ACTR2 / RFU, PPP3R1 / Fold change vs veh, PPP3R1 / RFU, PIK3R1 / Fold change vs veh, PIK3R1 / RFU, HNRNPA1 / Fold change vs veh, HNRNPA1 / RFU, RNF170 / Fold change vs veh, RNF170 / RFU, ZNF28 / Fold change vs veh, ZNF28 / RFU, RNGTT / Fold change vs veh, RNGTT / RFU, OGT / Fold change vs veh, OGT / RFU, BRD1 / Fold change vs veh, BRD1 / RFU, MARS / Fold change vs veh, MARS / RFU, ZNF655 / Fold change vs veh, ZNF655 / RFU, FAHD1 / Fold change vs veh, FAHD1 / RFU, BDP1 / Fold change vs veh, BDP1 / RFU, LRRCC1 / Fold change vs veh, LRRCC1 / RFU, ARID1A / Fold change vs veh, ARID1A / RFU, ZNF146 / Fold change vs veh, ZNF146 / RFU, ZNF330 / Fold change vs veh, ZNF330 / RFU, GPN3 / Fold change vs veh, GPN3 / RFU, C9orf123 / Fold change vs veh, C9orf123 / RFU, N4BP2L2 / Fold change vs veh, N4BP2L2 / RFU, ARFIP1 / Fold change vs veh, ARFIP1 / RFU, FAM179B / Fold change vs veh, FAM179B / RFU, BCL10 / Fold change vs veh, BCL10 / RFU, UHRF1BP1L / Fold change vs veh, UHRF1BP1L / RFU, BET1 / Fold change vs veh, BET1 / RFU, CNOT2 / Fold change vs veh, CNOT2 / RFU, ZNF268 / Fold change vs veh, ZNF268 / Fold change vs veh, ZNF507 / RFU, DGCR2 / Fold change vs veh, DGCR2 / RFU, WDSUB1 / Fold change vs veh, WDSUB1 / Fold change vs veh, HSP90B1 /// MIR3652 / RFU, ADSS / Fold change vs veh, ADSS / RFU, GK / Fold change vs veh, GK / RFU, ZNF148 / Fold change vs veh, ZNF148 / RFU, TAF9 / Fold change vs veh, TAF9 / RFU, SLC1A5 / Fold change vs veh, SLC1A5 / RFU, SLMO2 / Fold change vs veh, SLMO2 / RFU, ABCC4 / Fold change vs veh, ABCC4 / RFU, LOC101060439 /// RAP1B / Fold change vs veh, LOC101060439 /// RAP1B / RFU, RFX7 / Fold change vs veh, RFX7 / RFU, GTPBP10 / Fold change vs veh, GTPBP10 / RFU, CNEP1R1 / Fold change vs veh, CNEP1R1 / RFU, BIVM-ERCC5 /// ERCC5 / Fold change vs veh, BIVM-ERCC5 /// ERCC5 / RFU, ILF3 / Fold change vs veh, ILF3 / RFU 11762660_at / Fold change /veh 11762660_at / RFU VCAN (11757783_s_at) / Fold change /veh VCAN (11757783_s_at) / RFU DDX43 (11728927_at) / Fold change /veh DDX43 (11728927_at) / RFU KRT8 (11758188_x_at) / Fold change /veh KRT8 (11758188_x_at) / RFU NKD1 (11759106_at) / Fold change /veh NKD1 (11759106_at) / RFU SRD5A1 (11742802_a_at) / Fold change /veh SRD5A1 (11742802_a_at) / RFU TPSAB1 /// TPSB2 (11721975_s_at) / Fold change /veh TPSAB1 /// TPSB2 (11721975_s_at) / RFU GSTM3 (11746129_a_at) / Fold change /veh GSTM3 (11746129_a_at) / RFU IL23R (11737362_x_at) / Fold change /veh IL23R (11737362_x_at) / RFU TMEM51 (11727254_a_at) / Fold change /veh TMEM51 (11727254_a_at) / RFU PIWIL2 (11732686_x_at) / Fold change /veh PIWIL2 (11732686_x_at) / RFU ORM1 (11744905_x_at) / Fold change /veh ORM1 (11744905_x_at) / RFU CCDC152 (11743942_at) / Fold change /veh CCDC152 (11743942_at) / RFU ECM1 (11717891_a_at) / Fold change /veh ECM1 (11717891_a_at) / RFU IL23R (11748794_a_at) / Fold change /veh IL23R (11748794_a_at) / RFU TNFAIP8L3 (11732012_x_at) / Fold change /veh TNFAIP8L3 (11732012_x_at) / RFU MBOAT4 (11741988_at) / Fold change /veh MBOAT4 (11741988_at) / RFU 11764193_at / Fold change /veh 11764193_at / RFU TMEM53 (11763286_at) / Fold change /veh TMEM53 (11763286_at) / RFU MAGEB2 (11727129_at) / Fold change /veh MAGEB2 (11727129_at) / RFU TMEM200A (11744735_a_at) / Fold change /veh TMEM200A (11744735_a_at) / RFU CCDC152 (11751479_a_at) / Fold change /veh CCDC152 (11751479_a_at) / RFU FAM211A (11726209_a_at) / Fold change /veh FAM211A (11726209_a_at) / RFU RGS16 (11746705_a_at) / Fold change /veh RGS16 (11746705_a_at) / RFU VCAN (11755009_s_at) / Fold change /veh VCAN (11755009_s_at) / RFU RHOB (11743442_s_at) / Fold change /veh RHOB (11743442_s_at) / RFU RGS16 (11720943_a_at) / Fold change /veh RGS16 (11720943_a_at) / RFU RGS16 (11720944_at) / Fold change /veh RGS16 (11720944_at) / RFU, VPS4B / Fold change vs veh, VPS4B / RFU, CREB1 / Fold change vs veh, CREB1 / RFU, DNAJC13 / Fold change vs veh, DNAJC13 / RFU, GNAQ / Fold change vs veh, GNAQ / RFU, CDK5R1 / Fold change vs veh, CDK5R1 / RFU, ZRANB3 / Fold change vs veh, ZRANB3 / RFU, CUL4A / Fold change vs veh, CUL4A / RFU, CCNY / Fold change vs veh, CCNY / RFU, UFL1 / Fold change vs veh, UFL1 / RFU, COG3 / Fold change vs veh, COG3 / RFU, DIAPH2 / Fold change vs veh, DIAPH2 / RFU, SKA2 / Fold change vs veh, SKA2 / RFU, AFF3 / Fold change vs veh, AFF3 / RFU, LMF1 / Fold change vs veh, LMF1 / RFU, IPO11 / Fold change vs veh, IPO11 / RFU, DFFB / Fold change vs veh, DFFB / RFU, FOXP1 / Fold change vs veh, FOXP1 / RFU, CARD8 / Fold change vs veh, CARD8 / RFU, STRN3 / Fold change vs veh, STRN3 / RFU, ADK / Fold change vs veh, ADK / RFU, RASSF2 / Fold change vs veh, RASSF2 / RFU, WIPF1 / Fold change vs veh, WIPF1 / RFU, LARP1B / Fold change vs veh, LARP1B / RFU, RASA1 / Fold change vs veh, RASA1 / RFU, RB1 / Fold change vs veh, RB1 / RFU, PPFIA1 / Fold change vs veh, PPFIA1 / RFU, MAT2A / Fold change vs veh, MAT2A / RFU, CCT5 / Fold change vs veh, CCT5 / RFU, WDR92 / Fold change vs veh, WDR92 / RFU, CUX1 / Fold change vs veh, CUX1 / RFU, TTC7A / Fold change vs veh, TTC7A / RFU, TMEM135 / Fold change vs veh, TMEM135 / RFU, DEPTOR / Fold change vs veh, DEPTOR / RFU, CPM / Fold change vs veh, CPM / RFU, DNAJB6 / Fold change vs veh, DNAJB6 / RFU, CACNA2D3 / Fold change vs veh, CACNA2D3 / RFU, DTX4 / Fold change vs veh, DTX4 / RFU, TFCP2 / Fold change vs veh, TFCP2 / RFU, GMCL1 /// GMCL1P1 / Fold change vs veh, GMCL1 /// GMCL1P1 / RFU, AEBP2 / Fold change vs veh, AEBP2 / RFU, SNHG1 /// SNORD22 /// SNORD25 /// SNORD26 /// SNORD27 /// SNORD28 /// SNORD29 /// SNORD31 / Fold change vs veh, SNHG1 /// SNORD22 /// SNORD25 /// SNORD26 /// SNORD27 /// SNORD28 /// SNORD29 /// SNORD31 / Fold change (Aza/veh), C12orf56 (ProbeSet 11735607_a_at) / Fold change (ACY-1035/veh), C12orf56 (ProbeSet 11735607_a_at) / Fold change (Aza/veh), FGFR1OP (ProbeSet 11751329_s_at) / Fold change (ACY-1035/veh), FGFR1OP (ProbeSet 11751329_s_at) / Fold change (Aza/veh), VPS36 (ProbeSet 11739960_a_at) / Fold change (ACY-1035/veh), VPS36 (ProbeSet 11739960_a_at) / RFU SYPL1 (11715823_x_at) / Fold change /veh SYPL1 (11715823_x_at) / RFU IGFBP7 (11715501_s_at) / Fold change /veh IGFBP7 (11715501_s_at) / RFU REEP3 (11722064_at) / Fold change /veh REEP3 (11722064_at) / RFU IGLL1 (11728026_x_at) / Fold change /veh IGLL1 (11728026_x_at): dose or concentration left out as unconfirmed
Conditions: ProbeSet 11745428_a_at; LIST D

Nc1ccc(-c2cccs2)cc1NC(=O)c1ccc2c(c1)cc(C1CC1)n2CCN1CCOCC1 [ACY-1035]
RFU, DFFB: 104.10 RFU
